Measurements from US20060009425A1, “Oral formulations of paricalcitol” (priority 2004, published 2006).

Assays:
[1] = test system: biochemical bone activity markers; experiment: Phase 3 TIW study, biochemical bone activity markers (Table D); format: in vivo, human; conditions: CKD Stage 3 and 4, TIW treated subjects (Table D)
Description: (§1) Serum bone-specific alkaline phosphate and serum osteocalcin are considered more sensitive bone markers to evaluate degree of bone remodeling than urinary bone marker. […] As shown in Examples 5-7 and Tables C (Example 5), Table D (Example 6) and Table E (Example 7), certain biochemical bone activity marker variables were analyzed in CKD Stage 3 and 4 subjects. These subjects received treatment with the oral formulations of the present invention or a placebo. The bone markers examined in these subjects were serum osteocalcin, serum bone-specific alkaline phosphatase, urinary pyridinoline, and deoxypyridinoline. If more than 1 biochemical bone activity marker measurement existed for a subject on a particular day, the higher measurement was considered to be that subject's biochemical bone activity marker measurement for that day. […] The Final Visit measurement was defined as the last biochemical bone activity marker measurement following the first dose of study drug.
(§2) The Week 11 Visit measurement was defined as the biochemical bone activity marker measurement on the day closest to the Week 11 scheduled visit, for which the possible measurements to choose from were those collected within 64 and 77 days following the first dose of study drug.
(§3) Changes from baseline to Week 11 Visit and to Final Visit in biochemical bone activity markers were compared between oral paricalcitol and placebo using an ANOVA with treatment as the factor on the combined Phase 3 all treated subject population (Table F). Also, the changes from baseline to Week 11 Visit and to Final Visit were compared between oral paricalcitol and placebo using an ANCOVA with baseline as the second factor on the combined Phase 3 all treated subject population (Table G).
During the Treatment Phase, subjects were to self-administer study drug 3 times weekly, on Monday, Wednesday and Friday, for a total of 24 weeks. The initial dose was 2 or 4 mcg (depending on baseline iPTH levels). Procedures to be performed during the Treatment Phase included vital signs, chemistry and hematology, urinary pyridinoline, urinary deoxypyridinoline, serum bone-specific alkaline phosphatase, serum osteocalcin, urinalysis, spot urine for calcium/creatinine ratio, and recording of adverse events and concurrent medications. Serum iPTH, calcium, phosphorus, and albumin were measured every 2 weeks. Dose adjustments were to be made according to these chemistry results for iPTH, calcium, and phosphorus. Doses may have been increased in 2 mcg increments every 4 weeks.

[2] = test system: biochemical bone activity markers; experiment: Phase 3 once daily study, biochemical bone activity markers (Table E); format: in vivo, human; conditions: CKD Stage 3 and 4, daily (QD) treated subjects (Table E)
Description: as §1, §2, §3
During the Treatment Phase, subjects were to self-administer study drug once daily for a total of 24 weeks. The initial dose was 1 or 2 mcg (depending on baseline iPTH levels). Procedures to be performed during the Treatment Phase included vital signs, chemistry and hematology, urinary pyridinoline, urinary deoxypyridinoline, serum bone-specific alkaline phosphatase, serum osteocalcin, urinalysis, spot urine for calcium/creatinine ratio, and recording of adverse events and concurrent medications. Serum iPTH, calcium, phosphorus, and albumin were measured every 2 weeks. Dose adjustments were to be made according to these chemistry results for iPTH, calcium, and phosphorus. Doses may have been increased in 1 mcg increments every 4 weeks. Dose reductions were to occur according to a protocol-specified algorithm. However, dosing could have been adjusted any time if, in the judgment of the Investigator, a risk to subject safety existed.

`C[C@H](/C=C/[C@H](C)C(C)(C)O)[C@H]1CC[C@H]2/C(=C/C=C3C[C@@H](O)C[C@H](O)C3)CCC[C@]12C` [Paricalcitol, 19-nor-1α,3β,25-trihydroxy-9,10-secoergosta-5(Z); 7(E),22(E)-triene] was tested, and the “Serum Bone-Specific Alkaline Phosphatase, Change from Baseline (SE) to Final” value [1] was −8.179 (1.2010) mcg/L, the “Serum Bone-Specific Alkaline Phosphatase, Change from Baseline (SE) to Week 11” value [1] was −5.078 (0.9420) mcg/L and the “Serum Osteocalcin, Change from Baseline (SE) to Final” value [1] was −18.92 (3.973) ng/mL. The “Serum Osteocalcin, Change from Baseline (SE) to Week 11” value [1] was −6.96 (3.259) ng/mL, the “Urinary Deoxypyridinoline, Change from Baseline (SE) to Final” value [1] was −0.0182 (0.0062) nmol/mg Creat and the “Urinary Deoxypyridinoline, Change from Baseline (SE) to Week 11” value [1] was −0.0144 (0.00813) nmol/mg Creat. For the same compound, the “Urinary Pyridinoline, Change from Baseline (SE) to Final” value [1] was −7.11 (2.828) nmol/mmol Creat, the “Urinary Pyridinoline, Change from Baseline (SE) to Week 11” value [1] was −4.87 (3.725) nmol/mmol Creat and the “Serum Bone-Specific Alkaline Phosphatase, Change from Baseline (SE) to Final” value [2] was −7.575 (1.3976) mcg/L. The “Serum Bone-Specific Alkaline Phosphatase, Change from Baseline (SE) to Week 11” value [2] was −5.383 (1.0482) mcg/L, the “Serum Osteocalcin, Change from Baseline (SE) to Final” value [2] was −27.07 (5.544) ng/mL and the “Serum Osteocalcin, Change from Baseline (SE) to Week 11” value [2] was −0.22 (4.968) ng/mL. The “Urinary Deoxypyridinoline, Change from Baseline (SE) to Final” value [2] was 0.0100 (0.01392) nmol/mg Creat, the “Urinary Deoxypyridinoline, Change from Baseline (SE) to Week 11” value [2] was −0.0216 (0.01018) nmol/mg Creat and the “Urinary Pyridinoline, Change from Baseline (SE) to Final” value [2] was 0.26 (4.452) nmol/mmol Creat. The “Urinary Pyridinoline, Change from Baseline (SE) to Week 11” value [2] was −5.27 (3.884) nmol/mmol Creat.
